Laboratory results published in patent US12324802B2, “Modulators of cystic fibrosis transmembrane conductance regulator” (Vertex Pharmaceuticals Incorporated, priority 2020, dated 2025).
Read-outs that look alike come from different tables or passages of the source.

SMILES: CC(C)C1CCC=CC[C@](OCc2ccccc2)(C(F)(F)F)C2=NN=C(O2)c2nc(c(C(F)(F)F)cc2[N+](=O)[O-])N1 (mixture of isomers)
- ring closure, isolated yield (from C=CCCC(Nc1nc(-c2nnc([C@@](CC=C)(OCc3ccccc3)C(F)(F)F)o2)c([N+](=O)[O-])cc1C(F)(F)F)C(C)C, rcm bond, 14-membered ring, Zhan catalyst-1B, DCE, 15.4 mM, 70.0 °C): 47%

SMILES: CC(C)(C)OC(=O)Nc1cc(C(F)(F)F)c2nc1-c1nnc(o1)C(OCc1ccccc1)(C(F)(F)F)CCC=CC[C@@H]1COCC(=O)N21 (mixture of isomers)
- ring closure, isolated yield (from C=CCCC(OCc1ccccc1)(c1nnc(-c2nc(N3C(=O)COC[C@H]3CC=C)c(C(F)(F)F)cc2NC(=O)OC(C)(C)C)o1)C(F)(F)F, rcm bond, 14-membered ring, Zhan-1B, DCE, 3.35 mM, 75.0 °C, 4.0 h): 73%

SMILES: CC1(C)CC2CC=Cc3ccc(F)c(c3)C(O)(C(F)(F)F)C3=NN=C(O3)c3nc(c(C(F)(F)F)cc3N(C(=O)OC(C)(C)C)C(=O)OC(C)(C)C)N2C1 (mixture of isomers)
- ring closure, isolated yield (from C=CCC1CC(C)(C)CN1c1nc(-c2nnc(C(O)(c3cc(I)ccc3F)C(F)(F)F)o2)c(N(C(=O)OC(C)(C)C)C(=O)OC(C)(C)C)cc1C(F)(F)F, cc_pd bond, 15-membered ring, Pd(OAc)2/P(o-tol)3/Et3N, MeCN, 7.06 mM, 80.0 °C, 22.0 h): 58%

SMILES: CN1CCC=CCCC(OCc2ccccc2)(C(F)(F)F)C2=NN=C(O2)c2nc1c(C(F)(F)F)cc2NC(=O)OC(C)(C)C (mixture of isomers)
- ring closure, isolated yield (from C=CCCN(C)c1nc(-c2nnc(C(CCC=C)(OCc3ccccc3)C(F)(F)F)o2)c(NC(=O)OC(C)(C)C)cc1C(F)(F)F, rcm bond, 14-membered ring, Zhan-1B (15 mol%), DCE, 6.34 mM, 70.0 °C, 2.0 h): 76%

SMILES: CC(C)(C)OC(=O)Nc1cc(C(F)(F)F)c2nc1-c1nnc(o1)C(OCc1ccccc1)(C(F)(F)F)CCCC(=O)N1CCN2CC1 (centres unmarked)
- ring closure, isolated yield (from CC(C)(C)OC(=O)Nc1cc(C(F)(F)F)c(N2CCNCC2)nc1-c1nnc(C(CCCC(=O)O)(OCc2ccccc2)C(F)(F)F)o1, amide bond, 15-membered ring, HATU/DIEA, DMF, 14.5 mM, 25.0 °C, 0.083 h): 80%

SMILES: CC1(C)Nc2nc(c([N+](=O)[O-])cc2C(F)(F)F)C2=NN=C(O2)[C@@](OCc2ccccc2)(C(F)(F)F)CC=CCC1OCc1ccccc1 (mixture of isomers)
- ring closure, isolated yield (from C=CCC(OCc1ccccc1)C(C)(C)Nc1nc(-c2nnc([C@@](CC=C)(OCc3ccccc3)C(F)(F)F)o2)c([N+](=O)[O-])cc1C(F)(F)F, rcm bond, 14-membered ring, Zhan catalyst-1B, DCE, 2.36 mM, 70.0 °C, 18.0 h): 76%

SMILES: O=[N+]([O-])c1cc(C(F)(F)F)c2nc1-c1nnc(o1)[C@@](OCc1ccccc1)(C(F)(F)F)CCC=CCC1(CCOCC1)N2 (mixture of isomers)
- ring closure, isolated yield (from C=CCC[C@@](OCc1ccccc1)(c1nnc(-c2nc(NC3(CC=C)CCOCC3)c(C(F)(F)F)cc2[N+](=O)[O-])o1)C(F)(F)F, rcm bond, 14-membered ring, Zhan catalyst-1B, DCE, 3.13 mM, 60.0 °C, 3.75 h): 80%

SMILES: CC1CC=CCCC(OCc2ccccc2)(C(F)(F)F)C2=NN=C(O2)c2nc(c(C(F)(F)F)cc2[N+](=O)[O-])N1 (mixture of isomers)
- ring closure, isolated yield (from C=CCCC(OCc1ccccc1)(c1nnc(-c2nc(NC(C)CC=C)c(C(F)(F)F)cc2[N+](=O)[O-])o1)C(F)(F)F, rcm bond, 14-membered ring, Zhan-1B, DCE, 1.85 mM, 75.0 °C, 3.0 h): 61%

SMILES: CN1CCC=CCCC(OCc2ccccc2)(C(F)(F)F)C2=NN=C(O2)c2nc1c(S(C)(=O)=O)cc2NC(=O)OC(C)(C)C (mixture of isomers)
- ring closure, isolated yield (from C=CCCN(C)c1nc(-c2nnc(C(CCC=C)(OCc3ccccc3)C(F)(F)F)o2)c(NC(=O)OC(C)(C)C)cc1S(C)(=O)=O, rcm bond, 14-membered ring, Zhan-1B (two charges), DCE, 4.01 mM, 70.0 °C, 14.0 h): 41%

SMILES: CC(C)(C)OC(=O)Nc1cc(C(F)(F)F)c2nc1-c1nnc(o1)[C@@](OCc1ccccc1)(C(F)(F)F)CCC=CCC(C(=O)N1CCCC1)N2 (mixture of isomers)
- ring closure, isolated yield (from C=CCC[C@@](OCc1ccccc1)(c1nnc(-c2nc(NC(CC=C)C(=O)N3CCCC3)c(C(F)(F)F)cc2NC(=O)OC(C)(C)C)o1)C(F)(F)F, rcm bond, 14-membered ring, Zhan catalyst-1B, DCE, 1.4 mM, 75.0 °C, 2.0 h): 66%

SMILES: CC(C)(C)OC(=O)N(C(=O)OC(C)(C)C)c1cc(C(F)(F)F)c2nc1-c1nnc(o1)[C@@](OCc1ccccc1)(C(F)(F)F)CCC=CCC(c1ccccn1)N2 (mixture of isomers)
- ring closure, isolated yield (from C=CCC[C@@](OCc1ccccc1)(c1nnc(-c2nc(NC(CC=C)c3ccccn3)c(C(F)(F)F)cc2N(C(=O)OC(C)(C)C)C(=O)OC(C)(C)C)o1)C(F)(F)F, rcm bond, 14-membered ring, Zhan catalyst-1B, DCE, 1.5 mM, 85.0 °C, 12.0 h): 24%

SMILES: CC(C)(C)OC(=O)Nc1cc(C(F)(F)F)c2nc1-c1nnc(o1)[C@@](O)(C(F)(F)F)c1cc(ccc1F)C=CC[C@@H]1CCCN21 (mixture of isomers)
- ring closure, isolated yield (from C=CC[C@@H]1CCCN1c1nc(-c2nnc([C@](O)(c3cc(I)ccc3F)C(F)(F)F)o2)c(NC(=O)OC(C)(C)C)cc1C(F)(F)F, cc_pd bond, 15-membered ring, Pd(OAc)2/P(o-tol)3/Et3N, MeCN, 9.5 mM, 80.0 °C, 22.0 h): 58%

SMILES: O=[N+]([O-])c1cc(C(F)(F)F)c2nc1-c1nnc(o1)[C@@](OCc1ccccc1)(C(F)(F)F)CCC=CCC1(CCCC1)N2 (mixture of isomers)
- ring closure, isolated yield (from C=CCC[C@@](OCc1ccccc1)(c1nnc(-c2nc(NC3(CC=C)CCCC3)c(C(F)(F)F)cc2[N+](=O)[O-])o1)C(F)(F)F, rcm bond, 14-membered ring, Zhan catalyst-1B, DCE, 6.3 mM, 70.0 °C, 2.5 h): 27%

SMILES: O=[N+]([O-])c1cc(C(F)(F)F)c2nc1-c1nnc(o1)[C@@](OCc1ccccc1)(C(F)(F)F)CCC=CCC(c1ncccn1)N2 (mixture of isomers)
- ring closure, isolated yield (from C=CCC[C@@](OCc1ccccc1)(c1nnc(-c2nc(NC(CC=C)c3ncccn3)c(C(F)(F)F)cc2[N+](=O)[O-])o1)C(F)(F)F, rcm bond, 14-membered ring, Zhan catalyst-1B, DCE, 2.66 mM, 83.0 °C, 16.0 h): 49%

SMILES: CC1(C)CCCOCC(OCc2ccccc2)(C(F)(F)F)C2=NN=C(O2)c2nc(c(C(F)(F)F)cc2[N+](=O)[O-])N1 (centres unmarked)
- ring closure, isolated yield (from Cc1ccc(S(=O)(=O)Oc2nc(-c3nnc(C(COCCCC(C)(C)N)(OCc4ccccc4)C(F)(F)F)o3)c([N+](=O)[O-])cc2C(F)(F)F)cc1, snar bond, 14-membered ring, DIEA, DCM, 1.47 mM): 45%

SMILES: CC(C)(C)OC(=O)Nc1cc(C(F)(F)F)c2nc1-c1nnc(o1)C(OCc1ccccc1)(C(F)(F)F)CCC=CCCC1CCCN21 (mixture of isomers)
- ring closure, isolated yield (from C=CCCC1CCCN1c1nc(-c2nnc(C(CCC=C)(OCc3ccccc3)C(F)(F)F)o2)c(NC(=O)OC(C)(C)C)cc1C(F)(F)F, rcm bond, 15-membered ring, Zhan-1B (24 mol%), DCE, 4.89 mM, 70.0 °C, 16.0 h): 53%

SMILES: O=[N+]([O-])c1cc(C(F)(F)F)c2nc1-c1nnc(o1)[C@@](OCc1ccccc1)(C(F)(F)F)CCC=CCC1(CCC1)N2 (mixture of isomers)
- ring closure, isolated yield (from C=CCC[C@@](OCc1ccccc1)(c1nnc(-c2nc(NC3(CC=C)CCC3)c(C(F)(F)F)cc2[N+](=O)[O-])o1)C(F)(F)F, rcm bond, 14-membered ring, Zhan catalyst-1B, DCE, 3.27 mM, 85.0 °C, 5.0 h): 68%

SMILES: CC1(C)CCCC(OCc2ccccc2)(C(F)(F)F)C(=O)NNC(=O)c2nc(c(C(F)(F)F)cc2[N+](=O)[O-])NCC1 (centres unmarked)
- ring closure, isolated yield (from CC(C)(CCCC(OCc1ccccc1)(C(=O)O)C(F)(F)F)CCNc1nc(C(=O)O)c([N+](=O)[O-])cc1C(F)(F)F, crosslinker bond, 15-membered ring, hydrazine/BOP/HOAt/DIEA, DMF, 2.1 mM, 30.0 °C): 84%

SMILES: COc1cc2nc(c1[N+](=O)[O-])-c1nnc(o1)C(OCc1ccccc1)(C(F)(F)F)CCC=CC[C@@H]1CCCN21 (mixture of isomers)
- ring closure, isolated yield (from C=CCCC(OCc1ccccc1)(c1nnc(-c2nc(N3CCC[C@H]3CC=C)cc(OC)c2[N+](=O)[O-])o1)C(F)(F)F, rcm bond, 14-membered ring, Zhan catalyst-1B, DCE, 6.85 mM, 70.0 °C, 5.0 h): 29%

SMILES: CC1(COCc2ccccc2)CC=CCC[C@](OCc2ccccc2)(C(F)(F)F)C2=NN=C(O2)c2nc(c(C(F)(F)F)cc2[N+](=O)[O-])N1 (mixture of isomers)
- ring closure, isolated yield (from C=CCC[C@@](OCc1ccccc1)(c1nnc(-c2nc(NC(C)(CC=C)COCc3ccccc3)c(C(F)(F)F)cc2[N+](=O)[O-])o1)C(F)(F)F, rcm bond, 14-membered ring, Zhan catalyst-1B, DCE, 2.83 mM, 60.0 °C, 3.17 h): 75%

SMILES: O=[N+]([O-])c1cc(C(F)(F)F)c2nc1-c1nnc(o1)C(OCc1ccccc1)(C(F)(F)F)CCC=CC[C@@H]1COCCN21 (mixture of isomers)
- ring closure, isolated yield (from C=CCCC(OCc1ccccc1)(c1nnc(-c2nc(N3CCOC[C@H]3CC=C)c(C(F)(F)F)cc2[N+](=O)[O-])o1)C(F)(F)F, rcm bond, 14-membered ring, Zhan-1B, DCE, 15.9 mM, 70.0 °C, 3.5 h): 56%

SMILES: O=[N+]([O-])c1cc(C(F)(F)F)c2nc1-c1nnc(o1)[C@@](OCc1ccccc1)(C(F)(F)F)CC=CCCC(C1CC1)N2 (some centres unmarked)
- ring closure, isolated yield (from C=CCCC(Nc1nc(-c2nnc([C@@](CC=C)(OCc3ccccc3)C(F)(F)F)o2)c([N+](=O)[O-])cc1C(F)(F)F)C1CC1, rcm bond, 14-membered ring, Zhan catalyst-1B, DCE, 2.49 mM, 66.0 °C, 1.6 h): 76%

SMILES: O=[N+]([O-])c1cc(Cl)c2nc1-c1nnc(o1)C(OCc1ccccc1)(C(F)(F)F)CCC=CC[C@@H]1CCCN21 (mixture of isomers)
- ring closure, isolated yield (from C=CCCC(OCc1ccccc1)(c1nnc(-c2nc(N3CCC[C@H]3CC=C)c(Br)cc2[N+](=O)[O-])o1)C(F)(F)F, rcm bond, 14-membered ring, Zhan-1B, DCE, 5.74 mM, 70.0 °C, 3.0 h): 73%

SMILES: O=[N+]([O-])c1cc(C(F)(F)F)c2nc1-c1nnc(o1)C(OCc1ccccc1)(C(F)(F)F)CCC=CCC(CO)N2 (centres unmarked)
- ring closure, isolated yield (from C=CCCC(OCc1ccccc1)(c1nnc(-c2nc(NC(CO)CC=C)c(C(F)(F)F)cc2[N+](=O)[O-])o1)C(F)(F)F, rcm bond, 14-membered ring, Zhan-1B, DCE, 3.01 mM, 70.0 °C, 2.0 h): 32%

SMILES: O=[N+]([O-])c1cc(C(F)(F)F)c2nc1-c1nnc(o1)-c1c(cccc1OCc1ccccc1)CC=CC[C@@H]1CCCN21 (mixture of isomers)
- ring closure, isolated yield (from C=CCc1cccc(OCc2ccccc2)c1-c1nnc(-c2nc(N3CCC[C@H]3CC=C)c(C(F)(F)F)cc2[N+](=O)[O-])o1, rcm bond, 14-membered ring, Zhan-1B, DCE, 7.24 mM, 70.0 °C, 5.0 h): 26%

SMILES: O=[N+]([O-])c1cc(C(F)(F)F)c2nc1-c1nnc(o1)[C@@](OCc1ccccc1)(C(F)(F)F)CCC=CCC(Cc1ccccc1)N2 (mixture of isomers)
- ring closure, isolated yield (from C=CCC[C@@](OCc1ccccc1)(c1nnc(-c2nc(NC(CC=C)Cc3ccccc3)c(C(F)(F)F)cc2[N+](=O)[O-])o1)C(F)(F)F, rcm bond, 14-membered ring, Zhan catalyst-1B, DCE, 9.18 mM, 75.0 °C, 2.0 h): 19%
